# Source: patent publication US8895733B2 (Novartis AG, priority 2010, dated 2014)
# Target: T1, Nav 1.7 (Homo sapiens, UniProt Q15858)
# T1 construct: expressed in transfected cells
# Assay: Whole-cell voltage clamp electrophysiology, automated patch clamp (marker c in Table of Examples)
# Type: cell-based
# Conditions: marker c = Automated patch clamp data; read-out: Nav 1.7 activity
# How it was run: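 A voltage protocol weighted toward inactivated-state block was used to test compounds on stably expressing cells, with pulses from −65 mV holding to −10 mV test and −100 mV. Currents came from whole-cell automated patch-clamp recordings, either IonWorks Quattro or other automated instruments, usually in perforated-patch mode.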
# T1 sequence (Q15858 whole entry): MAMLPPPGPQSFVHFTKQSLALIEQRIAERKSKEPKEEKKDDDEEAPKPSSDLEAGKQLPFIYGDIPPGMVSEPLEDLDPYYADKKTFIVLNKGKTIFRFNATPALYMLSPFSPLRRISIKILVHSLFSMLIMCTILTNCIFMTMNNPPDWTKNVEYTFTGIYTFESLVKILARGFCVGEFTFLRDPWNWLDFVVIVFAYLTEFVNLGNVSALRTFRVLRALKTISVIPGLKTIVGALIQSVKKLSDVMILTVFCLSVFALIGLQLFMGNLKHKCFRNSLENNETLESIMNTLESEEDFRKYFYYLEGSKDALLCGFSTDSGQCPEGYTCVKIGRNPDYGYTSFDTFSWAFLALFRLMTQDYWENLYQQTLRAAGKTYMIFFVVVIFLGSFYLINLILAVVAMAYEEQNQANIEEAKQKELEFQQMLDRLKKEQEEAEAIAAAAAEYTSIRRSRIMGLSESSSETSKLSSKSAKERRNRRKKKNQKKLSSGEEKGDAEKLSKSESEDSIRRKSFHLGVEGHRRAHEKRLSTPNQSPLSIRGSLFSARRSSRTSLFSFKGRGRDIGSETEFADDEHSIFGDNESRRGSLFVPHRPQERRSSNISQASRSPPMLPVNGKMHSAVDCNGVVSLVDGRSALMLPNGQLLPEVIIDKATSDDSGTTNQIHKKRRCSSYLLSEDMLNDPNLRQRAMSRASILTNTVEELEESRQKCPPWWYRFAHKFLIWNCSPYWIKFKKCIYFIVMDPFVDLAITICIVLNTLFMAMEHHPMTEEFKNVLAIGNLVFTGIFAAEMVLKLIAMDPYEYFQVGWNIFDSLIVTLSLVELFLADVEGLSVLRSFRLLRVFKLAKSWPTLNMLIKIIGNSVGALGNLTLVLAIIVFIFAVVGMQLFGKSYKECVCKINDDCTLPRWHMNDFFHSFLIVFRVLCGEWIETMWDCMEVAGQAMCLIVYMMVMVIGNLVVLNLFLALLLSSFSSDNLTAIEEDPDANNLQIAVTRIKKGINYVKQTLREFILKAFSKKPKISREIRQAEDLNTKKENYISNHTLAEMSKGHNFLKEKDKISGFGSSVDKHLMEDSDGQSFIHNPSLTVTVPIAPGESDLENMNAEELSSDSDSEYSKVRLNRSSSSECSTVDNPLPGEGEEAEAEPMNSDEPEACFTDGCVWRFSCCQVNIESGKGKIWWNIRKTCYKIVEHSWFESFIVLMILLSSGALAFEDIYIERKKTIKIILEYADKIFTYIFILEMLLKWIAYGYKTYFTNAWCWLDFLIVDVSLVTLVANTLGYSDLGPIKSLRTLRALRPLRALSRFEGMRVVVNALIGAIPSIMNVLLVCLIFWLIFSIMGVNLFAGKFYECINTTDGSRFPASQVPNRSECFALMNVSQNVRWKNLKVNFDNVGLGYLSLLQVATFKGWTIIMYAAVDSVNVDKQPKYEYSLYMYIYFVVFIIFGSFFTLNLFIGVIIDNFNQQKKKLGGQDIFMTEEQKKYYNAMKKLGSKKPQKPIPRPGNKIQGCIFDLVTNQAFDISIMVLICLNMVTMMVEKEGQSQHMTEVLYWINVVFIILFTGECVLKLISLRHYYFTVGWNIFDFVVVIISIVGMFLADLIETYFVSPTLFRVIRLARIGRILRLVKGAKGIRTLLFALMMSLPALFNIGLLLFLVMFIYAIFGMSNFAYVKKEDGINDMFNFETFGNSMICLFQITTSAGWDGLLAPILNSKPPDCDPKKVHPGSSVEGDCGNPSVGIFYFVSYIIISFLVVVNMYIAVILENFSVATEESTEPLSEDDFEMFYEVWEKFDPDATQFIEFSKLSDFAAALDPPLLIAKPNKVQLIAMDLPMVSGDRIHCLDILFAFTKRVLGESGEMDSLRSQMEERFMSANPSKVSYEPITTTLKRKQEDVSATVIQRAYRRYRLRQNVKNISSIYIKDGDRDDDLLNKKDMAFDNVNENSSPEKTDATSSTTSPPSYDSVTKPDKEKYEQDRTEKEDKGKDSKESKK
row,Structure (SMILES),IC50 [nM]
1,"CN1CCN(C(=O)c2nc(-c3nc(N)nc(N(C)c4ccccc4)n3)no2)CC1 [Example 344, 2-N-methyl-6-{5-[(4-methylpiperazin-1-yl)carbonyl]-1,2,4-oxadiazol-3-yl}-2-N-phenyl-1,3,5-triazine-2,4-diamine]",5760
2,"Cc1ncc(-c2nc(-c3nc(N)nc(N(C)c4ccccc4)n3)no2)cn1 [Example 467, 2-N-methyl-6-[5-(2-methylpyrimidin-5-yl)-1,2,4-oxadiazol-3-yl]-2-N-phenyl-1,3,5-triazine-2,4-diamine]",9930
3,"Nc1ccc(-c2nc(-c3nc(N)nc(Nc4cccc(F)c4)n3)no2)nc1 [Example 249, 6-[5-(5-aminopyridin-2-yl)-1,2,4-oxadiazol-3-yl]-2-N-(3-fluorophenyl)-1,3,5-triazine-2,4-diamine]",9030
4,"CN(c1ccccc1)c1nc(N)nc(-c2noc([C@H]3[C@@H]4C(=O)N(Cc5ccccc5)C(=O)[C@@H]43)n2)n1 [Example 386, (1R,5S,6S)-6-(3-{4-Amino-6-[methyl(phenyl)amino]-1,3,5-triazin-2-yl}-1,2,4-oxadiazol-5-yl)-3-benzyl-3-azabicyclo[3.1.0]hexane-2,4-dione]",> 9980

# Next, values leading:
row,IC50 [nM],Structure (SMILES)
1,4590,"CN(c1ccccc1)c1nc(N)nc(-c2noc(N3CC(Oc4ccccn4)C3)n2)n1 [Example 499, 2-N-methyl-2-N-phenyl-6-{5-[3-(pyridin-2-yloxy)azetidin-1-yl]-1,2,4-oxadiazol-3-yl}-1,3,5-triazine-2,4-diamine]"
2,3650,"CN(c1ccccc1)c1nc(N)nc(-c2noc(-c3cccc(N4CCOCC4)n3)n2)n1 [Example 270, 2-N-methyl-6-{5-[6-(morpholin-4-yl)pyridin-2-yl]-1,2,4-oxadiazol-3-yl}-2-N-phenyl-1,3,5-triazine-2,4-diamine]"
3,3620,"COC[C@@H]1CCCN1c1nc(-c2nc(N)nc(N(C)c3ccccc3)n2)no1 [Example 446, 6-{5-[(2S)-2-(methoxymethyl)pyrrolidin-1-yl]-1,2,4-oxadiazol-3-yl}-2-N-methyl-2-N-phenyl-1,3,5-triazine-2,4-diamine]"
4,2210,"CN(c1ccccc1)c1nc(N)nc(-c2noc(C3CN(CCC(F)(F)F)C3)n2)n1 [Example 385, 2-N-methyl-2-N-phenyl-6-{5-[1-(3,3,3-trifluoropropyl)azetidin-3-yl]-1,2,4-oxadiazol-3-yl}-1,3,5-triazine-2,4-diamine]"
5,2030,Cc1cnc(-c2nc(-c3nc(N)nc(N(C)c4ccccc4)n3)no2)s1 [Example 342]
6,1850,"COc1ccc(NC(=O)c2nc(-c3nc(N)nc(N(C)c4ccccc4)n3)no2)cn1 [Example 258, 3-{4-Amino-6-[methyl(phenyl)amino]-1,3,5-triazin-2-yl}-N-(6-methoxypyridin-3-yl)-1,2,4-oxadiazole-5-carboxamide]"
7,1730,"CCS(=O)(=O)N1CC(c2nc(-c3nc(N)nc(N(C)c4ccccc4)n3)no2)C1 [Example 309, 6-{5-[1-(ethanesulfonyl)azetidin-3-yl]-1,2,4-oxadiazol-3-yl}-2-N-methyl-2-N-phenyl-1,3,5-triazine-2,4-diamine]"
8,1640,"Nc1nc(Nc2ccccc2)nc(-c2noc(C(=O)N3CCC(COCC(F)(F)F)CC3)n2)n1 [Example 461, 2-N-phenyl-6-[5-({4-[(2,2,2-trifluoroethoxy)methyl]piperidin-1-yl}carbonyl)-1,2,4-oxadiazol-3-yl]-1,3,5-triazine-2,4-diamine]"
9,1520,"Nc1nc(Nc2cccc(F)c2)nc(-c2noc(C(=O)NC3CCC3)n2)n1 [Example 224, 3-{4-amino-6-[(3-fluorophenyl)amino]-1,3,5-triazin-2-yl}-N-cyclobutyl-1,2,4-oxadiazole-5-carboxamide]"
10,1500,"Nc1nc(Nc2ccc(F)c(F)c2)nc(-c2noc(-c3ccc(OCC(F)(F)F)nc3)n2)n1 [Example 416, 2-N-(3,4-difluorophenyl)-6-{5-[6-(2,2,2-trifluoroethoxy)pyridin-3-yl]-1,2,4-oxadiazol-3-yl}-1,3,5-triazine-2,4-diamine]"
11,386,"CN(c1ccccc1)c1nc(N)nc(-c2noc(-c3ncccc3C(=O)OC3CCCC3)n2)n1 [Example 379, cyclopentyl 2-(3-{4-amino-6-[methyl(phenyl)amino]-1,3,5-triazin-2-yl}-1,2,4-oxadiazol-5-yl)pyridine-3-carboxylate]"
12,253,"CN(c1ccccc1)c1nc(N)nc(-c2noc(-c3ncccc3Cl)n2)n1 [Example 273, 6-[5-(3-chloropyridin-2-yl)-1,2,4-oxadiazol-3-yl]-2-N-methyl-2-N-phenyl-1,3,5-triazine-2,4-diamine]"
13,146,"Nc1nc(Nc2ccccc2)nc(-c2noc(-c3ncccc3C(F)(F)F)n2)n1 [Example 430, 2-N-phenyl-6-{5-[3-(trifluoromethyl)pyridin-2-yl]-1,2,4-oxadiazol-3-yl}-1,3,5-triazine-2,4-diamine]"
14,126,"CN(c1ccccc1)c1nc(N)nc(-c2noc(-c3ccc(NCC4CC4)nc3)n2)n1 [Example 333, 6-(5-{6-[(cyclopropylmethyl)amino]pyridin-3-yl}-1,2,4-oxadiazol-3-yl)-2-N-methyl-2-N-phenyl-1,3,5-triazine-2,4-diamine]"
15,89,Nc1nc(Nc2ccc(F)cc2)nc(-c2noc(-c3nccs3)n2)n1 [Example 241]

# Same assay, conditions: marker c: Automated patch clamp data; read-out: Nav 1.7 activity
row,IC50 [nM],Structure (SMILES)
1,431,"Cc1cccc(N(C)c2nc(N)nc(-c3noc(-c4ccccc4Cl)n3)n2)c1 [Example 195, 6-[5-(2-chlorophenyl)-1,2,4-oxadiazol-3-yl]-2-N-methyl-2-N-(3-methylphenyl)-1,3,5-triazine-2,4-diamine]"
2,20,"CN(c1ccccc1)c1nc(N)nc(-c2noc(N3CCC(CSCC(F)(F)F)CC3)n2)n1 [Example 175, 2-N-methyl-2-N-phenyl-6-[5-(4-{[(2,2,2-trifluoroethyl)sulfanyl]methyl}piperidin-1-yl)-1,2,4-oxadiazol-3-yl]-1,3,5-triazine-2,4-diamine]"
3,518,"CCN(c1ccccc1)c1nc(N)nc(-c2noc(-c3cccs3)n2)n1 [Example 96, N-Ethyl-N-phenyl-6-(5-thiophen-2-yl-[1,2,4]oxadiazol-3-yl)-[1,3,5]triazine-2,4-diamine]"
4,489,"Cc1ccc(-c2nc(-c3nc(N)nc(N(C)c4cccc(Cl)c4)n3)no2)o1 [Example 102, N-(3-Chloro-phenyl)-N-methyl-6-[5-(5-methyl-furan-2-yl)-[1,2,4]oxadiazol-3-yl]-[1,3,5]triazine-2,4-diamine]"
5,547,"Cc1ccc(-c2nc(-c3nc(N)nc(N(C)c4ccccc4F)n3)no2)o1 [Example 91, N-(2-Fluoro-phenyl)-N-methyl-6-[5-(5-methyl-furan-2-yl)-[1,2,4]oxadiazol-3-yl]-[1,3,5]triazine-2,4-diamine]"
6,2730,"CN(c1ccccc1)c1nc(N)nc(-c2noc(C3CCN(S(C)(=O)=O)CC3)n2)n1 [Example 160, 6-[5-(1-methanesulfonylpiperidin-4-yl)-1,2,4-oxadiazol-3-yl]-2-N-methyl-2-N-phenyl-1,3,5-triazine-2,4-diamine]"
7,559,"CN(c1ccccc1)c1nc(N)nc(-c2noc(C3CCN(CCC(F)(F)F)CC3)n2)n1 [Example 163, 2-N-methyl-2-N-phenyl-6-{5-[1-(3,3,3-trifluoropropyl)piperidin-4-yl]-1,2,4-oxadiazol-3-yl}-1,3,5-triazine-2,4-diamine]"
